Legend:
SARS-CoV-2 Delta = experiment: microbe, parasite or virus in culture; format: cell-based; conditions: Severe acute respiratory syndrome coronavirus 2, 24 h
TMPRSS2 = TMPRSS2 (Homo sapiens, UniProt O15393); experiment: In vitro enzyme activity inhibition assay (TMPRSS2, substrate Boc-Gln-Ala-Arg-AMC); conditions: cross-validation; FIG. 2B
Protocol: (§1) Columns 15 to 20 were added with an equivalent volume of DMSO as a positive control group, and columns 18 to 20 were added with an equivalent volume of buffer as a negative control group. […] The 384-well plate was placed in a microplate reader for detection, and the slope of fluorescence intensity increase in the first 2 minutes of the enzymatic reaction was taken as the activity of the protein for subsequent calculation.

Cathepsin L = Cathepsin L (Homo sapiens, UniProt P07711); experiment: In vitro enzyme activity inhibition assay (Cathepsin L, substrate Cbz-Phe-Arg-AMC); format: biochemical; conditions: cross-validation; FIG. 2A
Sequence of Cathepsin L (P07711 114-333): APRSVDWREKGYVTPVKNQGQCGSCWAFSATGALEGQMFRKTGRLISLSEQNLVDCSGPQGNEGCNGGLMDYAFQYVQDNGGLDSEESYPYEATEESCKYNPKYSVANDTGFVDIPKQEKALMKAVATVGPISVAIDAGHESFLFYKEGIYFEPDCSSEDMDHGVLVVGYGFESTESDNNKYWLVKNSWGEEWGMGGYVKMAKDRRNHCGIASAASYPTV
Protocol: as §1

Sequence of TMPRSS2 (O15393 whole entry): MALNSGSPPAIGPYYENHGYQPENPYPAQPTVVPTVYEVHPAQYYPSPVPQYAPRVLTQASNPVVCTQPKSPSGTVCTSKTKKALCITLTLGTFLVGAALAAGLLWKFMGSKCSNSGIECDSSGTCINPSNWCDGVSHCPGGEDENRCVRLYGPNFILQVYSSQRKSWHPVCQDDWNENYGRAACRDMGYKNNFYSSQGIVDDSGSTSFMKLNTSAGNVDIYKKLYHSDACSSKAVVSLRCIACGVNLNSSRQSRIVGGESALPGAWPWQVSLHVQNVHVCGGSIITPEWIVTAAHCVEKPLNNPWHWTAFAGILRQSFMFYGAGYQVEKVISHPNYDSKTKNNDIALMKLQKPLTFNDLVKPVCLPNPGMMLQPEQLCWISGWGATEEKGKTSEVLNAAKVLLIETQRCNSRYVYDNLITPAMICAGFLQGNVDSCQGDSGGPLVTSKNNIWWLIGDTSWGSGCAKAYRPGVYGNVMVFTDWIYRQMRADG

Row | Compound | EC50 (SARS-CoV-2 Delta; […], combination at a molar ratio of 1:1, FIG. 3) | inhibitory activity against TMPRSS2 (TMPRSS2) | EC50 (SARS-CoV-2 Delta) | inhibitory activity against Cathepsin L (Cathepsin L)
1 | CN1CCN(C(=O)N[C@@H](Cc2ccccc2)C(=O)N[C@H](/C=C/S(=O)(=O)c2ccccc2)CCc2ccccc2)CC1 [K777] | 660 nM | no inhibitory activity |  | 
2 | N=C(N)Nc1ccc(C(=O)Oc2ccc3cc(C(=N)N)ccc3c2)cc1 [Nafamostat] |  |  | 20 nM | no inhibitory activity

Source: EP4606376A1 (ShanghaiTech University, priority 2022, dated 2024)
